Assay results taken from patent US20090182031A1, “Reduction of Hair Growth” (The Gillette Company, a Delaware corporation, priority 2004, published 2009).

Test system: human hair follicles
Test: Human hair follicle growth assay
Assay type: cell-based
Conditions: for % Reduction (hair growth): versus control
Excerpt: Human skin was obtained from a plastic surgeon as a by-product of face-lift procedures. The skin samples generally consisted of haired and non-haired regions taken from the area of the face. Immediately after removal, the skin was placed in Williams E medium containing antibiotics, and kept refrigerated. The Williams E medium was commercially obtained (Life Technologies, Gaithersburg, Md.), and has been formulated with essential nutrients for maintaining viability of hair follicle in an in-vitro environment.
Human hair follicles in growth phase (anagen) were isolated from face-lift tissue under a dissecting scope using a scalpel and watchmakers forceps. The skin was sliced into thin strips exposing 2-3 rows of follicles that could readily be dissected. Follicles were placed into 0.5 ml Williams E medium supplemented with 2 mM L-glutamine, 10 ug/ml insulin, 10 ng/ml hydrocortisone, 100 units penicillin, 0.1 mg/ml streptomycin and 0.25 μg/ml amphotericin B. The follicles were incubated in 24 well plates (1 follicle/well) at 37° C. in an atmosphere of 5% CO2 and 95% air. Hair follicle images were taken in the 24-well plates under the dissecting scope under a power of 20×. Hair follicle lengths were measured on day 0 (day follicles were placed in culture) and again on day 6-7. In this system follicles appear to fully differentiate into a hair fiber and increase in length at a rate similar to the human, in vivo, rate of about 0.3 mm/day. For testing inhibitors of heat shock proteins, the inhibitors or anti-HSP antibody were included in the culture medium from time 0 and remained in the medium throughout the course of the experiment.

Row | SMILES | % Reduction (hair growth) (0.1 μM, day 0 to day 6) [%] | Length Increase (mm) (0.1 μM, follicle length day 6 minus day 0) | % Reduction (hair growth) (1 μM, day 0 to day 6) [%] | Length Increase (mm) (1 μM, follicle length day 6 minus day 0) | reduction of hair growth (submicromolar dose) | % Reduction (hair growth) (10 μM, day 0 to day 5) [%] | Length Increase (mm) (10 μM, follicle length day 5 minus day 0) | % Reduction (hair growth) (50 μM, day 0 to day 5) [%] | Length Increase (mm) (50 μM, follicle length day 5 minus day 0)
1 | COC1=C2C[C@@H](C)C[C@H](OC)[C@H](O)[C@@H](C)/C=C(\C)[C@H](OC(N)=O)[C@@H](OC)/C=C\C=C(/C)C(=O)NC(=CC1=O)C2=O [Geldanamycin, 2-Azabicyclo[16.3.1]docosa-4,6,10,18,21-pentaene-3,20,22-trione, 9,13-dihydroxy-8,14,19-trimethoxy-4,10,12,16-tetramethyl-, 9-carbamate (8CI)] | 52 | 0.55 ± 0.13 | 74 | 0.30 ± 0.08 | over 50% |  |  |  | 
2 | O=CN1CCC(=Cc2ccc3c(c2)OCO3)C1=O [KNK 437, 1-Pyrrolidinecarboxaldehyde, 3-(1,3-benzodioxol-5-ylmethylene)-2-oxo-(9CI)] |  |  |  |  |  | 57 | 0.75 ± 0.13 | 80 | 0.35 ± 0.12
